What was measured:
[1] = ESR spin trapping (DMPO) of ROS; details: 10 mM antioxidant
Method: ROS production was detected using the ESR spin trapping technique coupled with a spin trap 5,5-Dimethyl-pyrroline N-oxide (DMPO, Sigma, St. Louis, Mo.). Typically, the aqueous suspensions of NPs were added to DMPO (0.01 M), in the presence of equivalent volumes of either twofold concentrated LB medium, or each of its components (Tryptone, yeast extract, NaCl) or water. […] The solution was drawn into a 0.8 mm ID capillary quartz tube sealed at both ends with a plastic Critoseal (Thermo Fisher Scientific Inc), which was placed into a quartz tube that in turn was placed into the EPR rectangular cavity (ER 4122SHQ). The measurements were taken using a X-band Elexsys E500 EPR spectrometer (Bruker, Karlsruhe, Germany) using the following parameters: microwave power, 20 mW; scan width, 100 G; resolution, 1024; Gain, 60; sweep time, 60 s; # scans, 2; modulation frequency, 100 kHz; modulation amplitude, 1 G. In order to compare the radical intensity, the double integration (DI) of the spin adduct signal was calculated, using the Xepr 2.6b.58 acquisition version.

E. coli [2] = experiment: Bacterial killing kinetics in the presence of antioxidants; type: cell-based, Escherichia coli; details: 10 mM antioxidant, 1 h pre-incubation
Method: (§1) Cultures of E. coli and S. aureus bacteria grown overnight were diluted in fresh twofold concentrated LB medium to obtain stock solutions with a final working concentration of 10^5 CFU/ml. […] Bacteria supplemented with distilled water or the various antioxidants served as negative controls. At various time points, 100 μl samples were taken from each tube and transferred into the first row wells of a 96-well plate containing 20 μl of 0.1 N thiosulfate. The latter was added to quench the remaining chlorine on the P(MAA-MBAA)-Cl NPs and NaOCl, thus terminating the sterilization process. Serial dilutions were carried out and the cells spotted onto LB agar plates, which were incubated at 37° C. for 20 h. Cell growth was monitored and determined by a viable cell count.

S. aureus [3] = experiment: as above; type: cell-based, Staphylococcus aureus; details: 10 mM antioxidant, 1 h pre-incubation
Method: as §1

[4] = system: Escherichia coli (E. coli) C600; experiment: Minimum inhibitory concentration (MIC) assay in LB, 96-well, OD595; type: cell-based; details: 10^5 CFU/mL
Method: (§2) In exemplary procedures, Escherichia coli (E. coli) C600, Staphylococcus aureus (S. aureus) FRF1169, and multi-drug resistant strains E. coli 5327752, Klebsiella pneumoniae 5363271, and Providencia stuartii 5327311 were grown overnight at 37° C. under agitation (250 rpm) in Luria Bertani (LB, Difco) growth medium.
(§3) In exemplary procedures, the antimicrobial activity of the P(MAA-MBAA)-Cl nanoparticles was evaluated by determining the minimum inhibitory concentration (MIC) values for both E. coli and S. aureus. The MIC was defined as the lowest Cl concentration bound to the nanoparticles, or the NaOCl, at which no bacterial growth was visible following incubation with the respective bacteria. The stock solution of the P(MAA-MBAA)-Cl nanoparticles and NaOCl were each diluted in two-fold serial dilutions in a 96-well plate (Griener Bio-one) ranging from bound Cl concentrations of 10 to 0.08 mM (approximately corresponding to 0.8% P(MAA-MBAA)-Cl, w/v) in LB medium in a 96-well plate (Greiner Bio-one). Each well contained 10^5 colony-forming units (CFU)/mL of either E. coli or S. aureus, and bacteria were either treated with P(MAA-MBAA) nanoparticles or left untreated to serve as negative controls. The bacterial growth was monitored via absorbance measurements at OD595 utilizing a microplate reader (Synergy 2, BioTek instruments). All experiments were conducted in triplicate.

[5] = system: Staphylococcus aureus (S. aureus) FRF1169; experiment: as above; type: cell-based; details: 10^5 CFU/mL
Method: as §2, §3

E. coli [6] = experiment: Bacterial killing / killing kinetics, viable cell count (CFU/mL); type: cell-based, Escherichia coli
Method: as §2
(§4) In exemplary procedures, overnight cultures of E. coli and S. aureus bacteria were each diluted in a fresh LB medium to obtain stock solutions with a working concentration of 10^5 CFU per mL. Next, E. coli and S. aureus bacteria were grown, […] with equivalent volumes of either NaOCl, P(MAA-MBAA) or P(MAA-MBAA)-Cl nanoparticles (0.2%, 0.75%, and 1% w/v) under continuous agitation (250 rpm). At various time points, 100 μL samples were taken from each tube and transferred into the wells of the first row in a 96-well plate that contained 20 μL of 0.1 N sodium thiosulfate. The latter was added to quench the remaining Cl on the P(MAA-MBAA)-Cl nanoparticles, thus halting the reaction. Serial dilutions were carried out, and the cells were spotted onto LB agar plates, followed by incubation at 37° C. for 20 hours. Cell growth was monitored and determined by viable cell count and expressed as CFU/mL.
(§5) Cultures of E. coli and S. aureus bacteria grown overnight were diluted in fresh twofold concentrated LB medium to obtain stock solutions with a final working concentration of 10^5 CFU/ml. Then, E. coli and S. aureus bacteria were grown with either P(MAA-MBAA)-Cl NPs or NaOCl under continuous agitation (250 rpm). Bacteria grown with distilled water or P(MAA-MBAA) NPs served as negative controls. At various time points, 100 μl samples were taken from each tube and transferred into the first row wells of a 96-well plate containing 20 μl of 0.1 N thiosulfate. The latter was added to quench the remaining chlorine on the P(MAA-MBAA)-Cl NPs and NaOCl, thus terminating the sterilization process. […] Cell growth was monitored and determined by a viable cell count.

S. aureus [7] = experiment: as above; type: cell-based, Staphylococcus aureus
Method: as §2, §4, §5

E. coli [8] = experiment: Consecutive bacterial loading cycles (hourly, 8 cycles); type: cell-based, Escherichia coli
Method: (§6) The cell density of E. coli and S. aureus grown overnight was normalized to 2*10^5 cells per milliliter in a twofold concentrated LB medium; then the bacteria were treated for 1 h at 37° C. under agitation (250 rpm) with equivalent volumes of either NaOCl or P(MAA-MBAA)-Cl NPs. Bacteria shaken with water served as a negative control. After 1 h of incubation, aliquots were collected and diluted serially tenfold before spotting onto LB agar plates. After an overnight incubation at 37° C. the colony forming units (CFU) were counted and used to determine cell survival. Immediately after each aliquot was removed, newly prepared bacteria were added for another hour to each of the tubes to achieve a final concentration of 10^5 CFU/ml.

S. aureus [9] = experiment: as above; type: cell-based, Staphylococcus aureus
Method: as §6

E. coli [10] = experiment: Stability in organic rich media (LB pre-incubation, then bacterial loading); type: cell-based, Escherichia coli
Method: (§7) 1 ml of either DDW, NaOCl or P(MAA-MBAA)-Cl NPs was mixed with 1 ml of twofold concentrated LB medium and incubated for 3 h, 5 h or 24 h. Then, E. coli or S. aureus were added to each of the solutions, reaching a final concentration of 10^5 CFU/ml and the mixture agitated for either 3 h or 24 h. At the indicated time points, samples were taken for cell viability determination and the solutions were reloaded with freshly prepared bacteria. The experiment was continued until the reagents were no longer capable of evincing toxic effects on the tested bacteria.

S. aureus [11] = experiment: as above; type: cell-based, Staphylococcus aureus
Method: as §7

[12] = Kinetics of oxidative chlorine release in LB medium (NaI quenching, 292/350 nm); type: physicochemical; details: for % chlorinated: 1 day in LB
Method: (§8) Equal volumes of NaOCl or P(MAA-MBAA)-Cl NPs were incubated with equivalent volumes of twofold concentrated LB medium. The precise concentration of the oxidative chlorine found on the two reagents was determined at different time intervals via quenching with sodium iodide followed by spectrophotometer (Amersham Bioschiences) measurements at wavelengths of 292 nm and 350 nm, as previously described.
as §8, with “nm.” for “nm, as previously described.”

[13] = 10^5 CFU/ml in LB, NPs versus NaOCl
[14] = pre-incubated for 1 week with LB

CC(=O)N[C@@H](CS)C(=O)O [NAC, N-acetyl cysteine]
effect on formation of DMPO-OH by P(MAA-MBAA)-Cl NPs with LB [1]: completely abrogated
effect of antioxidant pre-incubation on killing by the chlorinated NPs (E. coli [2]): abolished the killing properties of the NPs
effect of antioxidant pre-incubation on killing by the chlorinated NPs (S. aureus [3]): abolished the killing properties of the NPs

OCl [NaOCl, sodium hypochlorite]
minimum inhibitory concentration (MIC) [4]: 5.6 mM oxidative Cl
minimum inhibitory concentration (MIC) [5]: 5.6 mM oxidative Cl
bacterial killing (E. coli [6]; 8 mM oxidative chlorine): Total kill
bacterial killing (E. coli [6]; 11 mM oxidative chlorine): Total kill
time to eradication of bacteria (E. coli [6]; [13]): ≤ 2 min
bacterial killing (S. aureus [7]; 8 mM oxidative chlorine): Total kill
bacterial killing (S. aureus [7]; 11 mM oxidative chlorine): Total kill
time to eradication of bacteria (S. aureus [7]; [13]): ≤ 2 min
bacterial viability after overnight incubation following the eighth loading cycle (E. coli [8]): no viable E. coli bacteria
loading cycle from which no longer able to promote bacterial killing (E. coli [8]): 4 cycle
bacterial viability after overnight incubation following the eighth loading cycle (S. aureus [9]): able to overcome the growth inhibitory affect
loading cycle from which no longer able to promote bacterial killing (S. aureus [9]): 2 cycle
effect of pre-incubation with LB on bactericidal activity (E. coli [10]; 3 h pre-incubation): had no impact on their bactericidal activity
effect of pre-incubation with LB on bactericidal activity (E. coli [10]; 5 h pre-incubation): growth inhibition
time to complete killing (E. coli [10]; 5 h pre-incubation with LB): 24 h
reduction of bacteria viability (E. coli [10]; 5 h pre-incubation with LB, 3 h time point): ~4 logs
effect of pre-incubation with LB on bactericidal activity (E. coli [10]; 24 h pre-incubation): destroyed its antibacterial activity
concentration required to kill bacteria (E. coli [10]; [14]): 0.36 M
killing at 0.18 M (E. coli [10]; [14]): ineffective
effect of pre-incubation with LB on bactericidal activity (S. aureus [11]; 3 h pre-incubation): did compromise its bactericidal activity
time to complete killing (S. aureus [11]; 3 h pre-incubation with LB): 24 h
effect of pre-incubation with LB on bactericidal activity (S. aureus [11]; 5 h pre-incubation): growth arrest
effect of pre-incubation with LB on bactericidal activity (S. aureus [11]; 24 h pre-incubation): destroyed its antibacterial activity
concentration required to kill bacteria (S. aureus [11]; [14]): 0.36 M
killing at 0.18 M (S. aureus [11]; [14]): ineffective
NaOCl molecules sequestered by organic substances ([12]; 10 minutes of incubation in LB): ~50%
% chlorinated ([12]; measured at 292 nm): 0.9%
% chlorinated ([12]; measured at 350 nm): 0.5%

O=C1O[C@H]([C@@H](O)CO)C(O)=C1O [AA, Ascorbic acid]
effect of antioxidant pre-incubation on killing by the chlorinated NPs (E. coli [2]): abolished the killing properties of the NPs
effect of antioxidant pre-incubation on killing by the chlorinated NPs (S. aureus [3]): abolished the killing properties of the NPs

Source: patent US10072161B2, “Polyamide nanoparticles and uses thereof” (Bar-Ilan University, priority 2014, dated 2018)
